Measurements: ChEMBL document CHEMBL1201862, “PubChem BioAssay data set” (2004)
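Grown in 96-well plates, cells were treated for 48 hours with each compound at five concentrations. Insufficient inhibition: endpoint recorded as highest concentration tested. The concentration for 50% growth inhibition is given as GI50.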 Calls of active or inactive are those of the source. No stated cut-off is given here; in the data, active = GI50 up to about 1.1 µM and inactive = higher.

Legend:
Experiment in all cases: DTP human tumour cell line panel, 48 h
[1] = system: BT-549
[2] = system: DU-145
[3] = system: EKVX
[4] = system: HCT-116
[5] = system: HOP-92
[6] = system: IGROV-1
[7] = system: M14
[8] = system: MOLT-4
[9] = system: NCI-H460
[10] = system: NCI/ADR-RES
[11] = system: OVCAR-3
[12] = system: OVCAR-4
[13] = system: OVCAR-8
[14] = system: RXF 393
[15] = system: SF-295
[16] = system: SK-MEL-5
[17] = system: SNB-19
[18] = system: U-251
[19] = system: UACC-62
[20] = system: UO-31

| Compound | GI50 [1] | GI50 [2] | GI50 [3] | GI50 [4] | GI50 [5] | GI50 [6] | GI50 [7] | GI50 [8] | GI50 [9] | GI50 [10] | GI50 [11] | GI50 [12] | GI50 [13] | GI50 [14] | GI50 [15] | GI50 [16] | GI50 [17] | GI50 [18] | GI50 [19] | GI50 [20] |
| --- | --- | --- | --- | --- | --- | --- | --- | --- | --- | --- | --- | --- | --- | --- | --- | --- | --- | --- | --- | --- |
| C=C(CCC/C(C)=C/C=C/[C@@H](C)CCCc1ccoc1)C[C@@H]1OC(=O)[C@H](C)[C@@H]1O | 8.95 µM (inactive) | 10.6 µM (inactive) | 9.2 µM (inactive) | 13.3 µM (inactive) | 10.6 µM (inactive) | 10.7 µM (inactive) | 9.33 µM (inactive) | 16.1 µM (inactive) | 11 µM (inactive) | 9.04 µM (inactive) | 7.13 µM (inactive) | 10.2 µM (inactive) | 10.1 µM (inactive) | 10.3 µM (inactive) | 7.6 µM (inactive) | 6.3 µM (inactive) | 9.25 µM (inactive) | 11 µM (inactive) | 5.27 µM (inactive) | 7.85 µM (inactive) |
| CC(C)(C)OC(=O)N/C=C1\C(=O)Oc2ccccc2C1=O | 33.7 µM (inactive) | 8.67 µM (inactive) | 47.6 µM (inactive) | 36 µM (inactive) | 45.3 µM (inactive) | 42.5 µM (inactive) | 35.6 µM (inactive) | > 100 µM (inactive) | 33.2 µM (inactive) | 41.4 µM (inactive) | 29.7 µM (inactive) | 33 µM (inactive) | 40.6 µM (inactive) | 23.2 µM (inactive) | 38.5 µM (inactive) | 26.1 µM (inactive) | 38 µM (inactive) | 19.8 µM (inactive) | 38.4 µM (inactive) | 0.082 µM (active) |
| O=C1/C(=C/C=C/c2ccccc2)CCC1CNc1ccccc1 (stereo not given) | 32.1 µM (inactive) | > 93.3 µM (inactive) | > 100 µM (inactive) | 17.9 µM (inactive) | 47.8 µM (inactive) | 23.4 µM (inactive) | 30.2 µM (inactive) | 20.3 µM (inactive) | > 88.7 µM (inactive) | 96.8 µM (inactive) | 23.7 µM (inactive) | 99.3 µM (inactive) | 37.4 µM (inactive) | 19.8 µM (inactive) | > 100 µM (inactive) | 67 µM (inactive) | > 55 µM (inactive) | > 59.3 µM (inactive) | 50.4 µM (inactive) | 59.8 µM (inactive) |
| O=c1oc2ccc([N+](=O)[O-])cc2c(Nc2ccc3c(c2)S(=O)(=O)c2ccccc2O3)c1[N+](=O)[O-] | 73.1 µM (inactive) | > 100 µM (inactive) | > 100 µM (inactive) | 73.5 µM (inactive) | 51.2 µM (inactive) | > 100 µM (inactive) | 42.9 µM (inactive) | 40.1 µM (inactive) | 98.4 µM (inactive) | > 100 µM (inactive) | 69.3 µM (inactive) | > 100 µM (inactive) | > 100 µM (inactive) | 45.4 µM (inactive) | 60.4 µM (inactive) | 81.8 µM (inactive) | 77.1 µM (inactive) | 57.3 µM (inactive) | 43.8 µM (inactive) | 53.3 µM (inactive) |
| O=C(CBr)NCCc1c[nH]c2ccccc12 | 1.77 µM (inactive) | 2.07 µM (inactive) | 1.79 µM (inactive) | 1.65 µM (inactive) | 2.29 µM (inactive) | 1.83 µM (inactive) | 1.66 µM (inactive) | 0.406 µM (active) | 6.44 µM (inactive) | 2.11 µM (inactive) | 1.92 µM (inactive) | 1.79 µM (inactive) | 3.33 µM (inactive) | 1.09 µM (active) | 13.7 µM (inactive) | 1.17 µM (inactive) | 6.17 µM (inactive) | 1.87 µM (inactive) | 1.75 µM (inactive) | 1.72 µM (inactive) |
